Experimental data as given in US6436441B1, “Hydrogel-forming sustained-release preparation” (Yamanouchi Pharmaceutical Co., Ltd., priority 1992, dated 2002).

Settings: JP method, 25 ± 5° C.; the additive itself

## O=C(CO)[C@@H](O)[C@H](O)[C@H](O)CO [D-Fructose]
  Solubility (volume of water required for dissolving 1 gram): 1 mL
